Results from patent publication US20040121946A9, “Inducing cellular immune responses to her2/neu using peptide and nucleic acid compositions” (priority 2002, published 2004).
Where no end group is shown, it is not given here.

Key:
DRB1*0301 (DR3) = DRB1*0301 (DR3) (Homo sapiens, UniProt P01903+P01911, A100K/A102G/A103R/A169T/F55Y/I96L/K41T/L162R/M171V/P40S/Q125H/Q178H/Q39Y/R42S/S66N/T106N/T262R/W38E/Y61H); assay: HLA class II peptide binding assay, purified HLA; conditions: unit not given
[1] = test system: HLA-DR molecules (DR1, DR4w4, DR7, DRB5*0101, DRB1*1501, DRB1*1101, DRB1*0802, DRB1*1302); assay: DR supertype cross-reactive binding; parameters: species or system human; conditions: for DR147 Cross-binding: number of DR1, DR4w4, DR7 bound, Table XXVIII
[2] = Table XIX, DR supermotif peptides
[3] = Table XXa, DR 3a motif peptides

Chain of DRB1*0301 (DR3) (P01903 26-254 limits assumed, other chains not shown): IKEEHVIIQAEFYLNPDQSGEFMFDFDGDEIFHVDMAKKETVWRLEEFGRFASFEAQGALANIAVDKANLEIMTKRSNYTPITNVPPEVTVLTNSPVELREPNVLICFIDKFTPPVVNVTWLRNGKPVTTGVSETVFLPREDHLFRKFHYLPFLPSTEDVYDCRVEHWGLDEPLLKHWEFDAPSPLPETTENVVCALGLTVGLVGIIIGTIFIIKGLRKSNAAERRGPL

Row | DR3 binding data (DRB1*0301 (DR3); [2]) | DR3 binding data (DRB1*0301 (DR3); [3]) | DR147 Cross-binding [1] | Molecule | Broad Binding (5/8) ([1]; number of the 8 DR alleles bound)
1 | 0.0083 | 0.0083 |  | CSCC[C@H](NC(=O)CNC(=O)[C@H](CC(C)C)NC(=O)CNC(=O)[C@H](Cc1ccc(O)cc1)NC(=O)[C@@H](N)CS)C(=O)N[C@@H](CCC(=O)O)C(=O)N[C@@H](Cc1c[nH]cn1)C(=O)N[C@@H](CC(C)C)C(=O)N[C@@H](CCCNC(=N)N)C(=O)N[C@@H](CCC(=O)O)C(=O)N[C@H](C(=O)N[C@@H](CCCNC(=N)N)C(=O)N[C@@H](C)C(=O)N[C@H](C(=O)O)C(C)C)C(C)C | 
2 | 0.0710 | 0.0710 |  | CSCC[C@H](NC(=O)[C@H](CCCNC(=N)N)NC(=O)[C@H](CO)NC(=O)[C@H](Cc1ccccc1)NC(=O)[C@H](CCC(=O)O)NC(=O)[C@H](CO)NC(=O)[C@@H](NC(=O)[C@H](CC(C)C)NC(=O)[C@H](CCC(=O)O)NC(=O)[C@H](CCCNC(=N)N)NC(=O)[C@@H](N)Cc1ccccc1)C(C)C)C(=O)N[C@@H](C)C(=O)N[C@@H](CCCNC(=N)N)C(=O)N[C@@H](CC(=O)O)C(=O)N1CCC[C@H]1C(=O)O | 
3 |  | 0.1600 |  | CC[C@H](C)[C@H](NC(=O)[C@@H](NC(=O)[C@@H](NC(=O)[C@H](Cc1ccccc1)NC(=O)[C@H](CCCNC(=N)N)NC(=O)[C@H](CCC(N)=O)NC(=O)[C@@H]1CCCN1C(=O)[C@H](CC(=O)O)NC(=O)[C@H](CCCNC(=N)N)NC(=O)[C@H](C)NC(=O)[C@H](CCSC)NC(=O)[C@H](CCCNC(=N)N)NC(=O)[C@H](CO)NC(=O)[C@@H](N)Cc1ccccc1)C(C)C)C(C)C)C(=O)N[C@@H](CCC(N)=O)C(=O)O | 
4 |  |  | 0 | CC[C@H](C)[C@H](NC(=O)[C@@H](NC(=O)[C@H](CS)NC(=O)[C@@H](NC(=O)[C@@H]1CCCN1C(=O)[C@@H]1CCCN1C(=O)[C@H](CCC(N)=O)NC(=O)[C@@H]1CCCN1C(=O)[C@H](CC(C)C)NC(=O)[C@H](CCCNC(=N)N)NC(=O)[C@H](CCC(=O)O)NC(=O)CN)[C@@H](C)CC)[C@@H](C)O)C(=O)N[C@@H](CC(=O)O)C(=O)N[C@H](C(=O)N[C@@H](Cc1ccc(O)cc1)C(=O)O)C(C)C | 
5 |  | 0.2200 |  | CC(C)C[C@H](NC(=O)[C@H](C)NC(=O)[C@H](Cc1ccc(O)cc1)NC(=O)[C@H](CC(N)=O)NC(=O)[C@H](CC(=O)O)NC(=O)[C@H](CCC(=O)O)NC(=O)[C@H](Cc1ccccc1)NC(=O)[C@H](CC(C)C)NC(=O)[C@H](CCC(N)=O)NC(=O)[C@@H](NC(=O)CN)[C@@H](C)O)C(=O)N[C@@H](C)C(=O)N[C@H](C(=O)N[C@@H](CC(C)C)C(=O)N[C@@H](CC(=O)O)C(=O)O)C(C)C | 
6 | −0.0027 | −0.0027 |  | CC(C)C[C@H](NC(=O)[C@H](CS)NC(=O)[C@H](Cc1c[nH]cn1)NC(=O)[C@H](CCCNC(=N)N)NC(=O)[C@H](C)NC(=O)[C@H](CC(N)=O)NC(=O)[C@@H](NC(=O)[C@H](Cc1ccc(O)cc1)NC(=O)[C@H](CCC(=O)O)NC(=O)[C@H](CCCNC(=N)N)NC(=O)[C@@H]1CCCN1C(=O)[C@H](CC(C)C)NC(=O)CNC(=O)[C@H](CCC(N)=O)NC(=O)[C@@H](N)CC(C)C)C(C)C)C(=O)O | 
7 | 0.0270 | 0.0270 |  | CC(C)C[C@H](NC(=O)[C@@H]1CCCN1C(=O)[C@@H](NC(=O)[C@@H](NC(=O)[C@@H]1CCCN1C(=O)[C@H](CC(=O)O)NC(=O)[C@H](CCC(=O)O)NC(=O)[C@H](CO)NC(=O)[C@H](Cc1ccc(O)cc1)NC(=O)[C@H](CCCNC(=N)N)NC(=O)[C@H](CCC(N)=O)NC(=O)[C@@H](N)CC(C)C)[C@@H](C)O)C(C)C)C(=O)N1CCC[C@H]1C(=O)N[C@@H](CO)C(=O)N[C@@H](CCC(=O)O)C(=O)O | 
8 |  |  | 1 | CC[C@H](C)[C@H](NC(=O)CNC(=O)[C@@H](NC(=O)[C@@H](NC(=O)[C@H](C)NC(=O)[C@H](CO)NC(=O)[C@@H](NC(=O)[C@@H](NC(=O)[C@H](CO)NC(=O)[C@@H](NC(=O)[C@@H](N)CC(C)C)[C@@H](C)O)[C@@H](C)CC)[C@@H](C)CC)C(C)C)C(C)C)C(=O)N[C@@H](CC(C)C)C(=O)N[C@@H](CC(C)C)C(=O)N[C@H](C(=O)N[C@H](C(=O)O)C(C)C)C(C)C | 
9 | −0.0027 | −0.0027 |  | CC(C)C[C@H](NC(=O)[C@@H]1CCCN1C(=O)[C@H](C)NC(=O)[C@@H](NC(=O)[C@H](CC(N)=O)NC(=O)[C@H](CO)NC(=O)[C@H](C)NC(=O)[C@@H]1CCCN1C(=O)[C@H](CC(=O)O)NC(=O)CNC(=O)[C@H](CC(=O)O)NC(=O)[C@H](Cc1ccccc1)NC(=O)[C@H](CO)NC(=O)[C@H](CCC(=O)O)NC(=O)[C@@H]1CCCN1)[C@@H](C)O)C(=O)O | 
10 | −0.0027 | −0.0027 |  | CC[C@H](C)[C@H](NC(=O)[C@@H]1CCCN1C(=O)[C@H](CCSC)NC(=O)[C@H](Cc1ccc(O)cc1)NC(=O)[C@H](CO)NC(=O)[C@H](CC(C)C)NC(=O)[C@H](CC(=O)O)NC(=O)[C@@H]1CCCN1C(=O)[C@H](CCCCN)NC(=O)[C@@H](NC(=O)CNC(=O)[C@H](CO)NC(=O)[C@@H]1CCCN1)C(C)C)C(=O)N[C@@H](Cc1c[nH]c2ccccc12)C(=O)N[C@@H](CCCCN)C(=O)O | 
11 | 0.0080 | 0.0080 |  | CSCC[C@H](NC(=O)[C@H](CC(=O)O)NC(=O)[C@H](CC(=O)O)NC(=O)[C@H](CC(=O)O)NC(=O)[C@H](CCC(=O)O)NC(=O)[C@H](CC(C)C)NC(=O)[C@H](CC(C)C)NC(=O)[C@H](CO)NC(=O)[C@@H](N)CCCNC(=N)N)C(=O)NCC(=O)N[C@@H](CC(=O)O)C(=O)N[C@@H](CC(C)C)C(=O)N[C@H](C(=O)N[C@@H](CC(=O)O)C(=O)N[C@@H](C)C(=O)O)C(C)C | 
12 | 0.0023 |  |  | CC(C)C[C@H](NC(=O)[C@@H](NC(=O)[C@H](CCC(=O)O)NC(=O)[C@H](Cc1ccccc1)NC(=O)[C@@H](NC(=O)[C@H](CCC(N)=O)NC(=O)[C@H](CC(C)C)NC(=O)[C@H](CCC(N)=O)NC(=O)[C@H](CCC(=O)O)NC(=O)[C@@H]1CCCN1C(=O)[C@H](CCC(N)=O)NC(=O)[C@H](CC(C)C)NC(=O)[C@@H]1CCCN1C(=O)[C@H](C)NC(=O)[C@@H](N)[C@@H](C)O)C(C)C)[C@@H](C)O)C(=O)O | 
13 | 0.0220 | 0.0220 |  | CC(C)C[C@H](NC(=O)[C@H](CCC(N)=O)NC(=O)[C@H](CC(=O)O)NC(=O)[C@H](Cc1c[nH]c2ccccc12)NC(=O)[C@@H]1CCCN1C(=O)[C@@H](NC(=O)[C@@H](NC(=O)[C@H](Cc1c[nH]cn1)NC(=O)[C@@H](N)C(C)C)[C@@H](C)O)C(C)C)C(=O)N[C@@H](Cc1ccccc1)C(=O)N[C@@H](CCCNC(=N)N)C(=O)N[C@@H](CC(N)=O)C(=O)N1CCC[C@H]1C(=O)N[C@@H](Cc1c[nH]cn1)C(=O)N[C@@H](CCC(N)=O)C(=O)O | 
14 |  | 0.0630 |  | CSCC[C@H](NC(=O)[C@H](CC(=O)O)NC(=O)[C@H](CC(=O)O)NC(=O)[C@H](CC(=O)O)NC(=O)[C@H](CCC(=O)O)NC(=O)[C@H](CC(C)C)NC(=O)[C@H](CC(C)C)NC(=O)[C@H](CO)NC(=O)[C@H](CCCNC(=N)N)NC(=O)[C@@H](N)Cc1ccc(O)cc1)C(=O)NCC(=O)N[C@@H](CC(=O)O)C(=O)N[C@@H](CC(C)C)C(=O)N[C@H](C(=O)N[C@@H](CC(=O)O)C(=O)O)C(C)C | 
15 | 0.0075 | 0.0075 |  | AIKVLRENTSPKANK | 

Row | Molecule | DR3 binding data (DRB1*0301 (DR3); [2]) | DR3 binding data (DRB1*0301 (DR3); [3]) | DR147 Cross-binding [1] | Broad Binding (5/8) ([1]; number of the 8 DR alleles bound)
16 | CC(C)C[C@H](NC(=O)CNC(=O)[C@H](Cc1c[nH]c2ccccc12)NC(=O)[C@@H](N)CCCNC(=N)N)C(=O)N[C@@H](CC(C)C)C(=O)N[C@@H](CC(C)C)C(=O)N[C@@H](C)C(=O)N[C@@H](CC(C)C)C(=O)N[C@@H](CC(C)C)C(=O)N1CCC[C@H]1C(=O)N1CCC[C@H]1C(=O)NCC(=O)N[C@@H](C)C(=O)N[C@@H](C)C(=O)N[C@@H](CO)C(=O)O |  |  | 2 | 6
